The experiment concerns the target SARS-CoV-2 3CL^pro (Severe acute respiratory syndrome coronavirus 2, UniProt P0DTD1). In words: biochemical. Conditions: for Ratio (IC50 0.5 min / IC50 60 min): IC50 shift between 0.5 min and 60 min preincubation.

The source of these data is paper PMC8322037 (International Journal of Biological Macromolecules, 2021).

As usually defined, the IC50 is the concentration needed to halve the response being measured. Low values mean inhibition by little substance, high ones a need for much substance.

Some results are limits rather than exact numbers.

In the case of Myricitrin, the “Ratio (IC50 0.5 min / IC50 60 min)” value is given as 8.32.

Consider `O=C1c2c(O)cc(O)cc2OC(c2ccc(O)c(O)c2)C1O` (centres unmarked) [Taxifolin], for which the “Ratio (IC50 0.5 min / IC50 60 min)” value is reported as >2.75. Besides, the IC50 (IC50 0.5 (min)) was > 200 µM. The IC50 (IC50 60 (min)) amounted to 72.7 µM. This molecule showed a concentration for half-maximal inhibition (IC50) (IC50 (three different doses), assayed by using three different doses, Fig. 4) of 10 to 100 µM.
